According to patent US11673889B2, “Substituted imidazo[4,5-c][1,8]naphthyridines as phosphodiesterase inhibitors” (Nanjing Zhengxiang Pharmaceuticals Co., Ltd., priority 2019, dated 2023):

Key:
human soluble ENPP1 [1] = molecular target: T1, human soluble ENPP1 (Homo sapiens, UniProt P22413); assay: ENPP1 activity assay using p-Nitrophenyl-5′-TMP as a substrate; format: biochemical
T1 construct: 20 ng of human soluble ENPP1
T1 sequence (P22413 103-925 limits assumed): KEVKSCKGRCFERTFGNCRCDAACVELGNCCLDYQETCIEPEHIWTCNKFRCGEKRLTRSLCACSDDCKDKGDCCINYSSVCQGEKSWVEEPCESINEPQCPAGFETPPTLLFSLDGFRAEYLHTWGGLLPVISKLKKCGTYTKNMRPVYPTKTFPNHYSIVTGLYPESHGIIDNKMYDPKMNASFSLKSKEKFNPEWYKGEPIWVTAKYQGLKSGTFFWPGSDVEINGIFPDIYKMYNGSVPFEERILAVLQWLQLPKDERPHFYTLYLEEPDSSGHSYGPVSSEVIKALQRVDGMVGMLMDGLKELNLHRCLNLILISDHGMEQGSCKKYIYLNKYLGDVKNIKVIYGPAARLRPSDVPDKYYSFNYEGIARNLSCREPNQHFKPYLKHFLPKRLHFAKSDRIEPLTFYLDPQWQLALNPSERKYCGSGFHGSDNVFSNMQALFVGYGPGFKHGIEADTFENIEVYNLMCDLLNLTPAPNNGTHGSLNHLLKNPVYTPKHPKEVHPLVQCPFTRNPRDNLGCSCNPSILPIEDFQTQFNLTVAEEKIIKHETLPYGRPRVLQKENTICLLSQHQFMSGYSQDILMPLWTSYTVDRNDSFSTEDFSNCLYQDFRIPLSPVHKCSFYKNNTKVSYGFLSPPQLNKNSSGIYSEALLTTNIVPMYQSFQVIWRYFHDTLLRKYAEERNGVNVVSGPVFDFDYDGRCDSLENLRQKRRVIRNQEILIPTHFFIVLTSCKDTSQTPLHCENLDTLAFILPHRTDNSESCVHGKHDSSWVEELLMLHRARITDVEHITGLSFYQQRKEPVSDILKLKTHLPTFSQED
Method: ENPP1 is a transmembrane glycoprotein that hydrolyzes nucleotides and nucleotide derivatives with the formation of nucleotide-5′-monophosphates. ENPP1 hydrolyzes artificial phosphoric acid ester thymidine 5′monophosphate p-nitrophenyl ester (TMP-pNP) to nucleotide-5′-monophosphate and p-nitrophenol, which is a chromogenic product.
Load into a well with 20 ng of human soluble ENPP1 in 50 μL and incubate at room temperature with 25 μL inhibitor solution (4× Final Concentration) for 30 mins. Then, add 25 μL 2 mM TMP solution (2× Final Concentration) into the well, Incubate at RT for 1 hour.
(§1) The percent inhibition at each compound is calculated as follows: % inhibition=(ODMAX−ODCOMPOUND)/(ODMAX−ODMIN)*100. (MAX: absence of ENPP1 inhibitors control, MIN: blank control.)
The IC50 values for percent inhibition versus compound concentration were determined by fitting the inhibition curves using a four-parameter variable slope model in GraphPad Prism® 8.

human soluble ENPP1 [2] = molecular target: T1, human soluble ENPP1; assay: ENPP1 activity assay using p-Nitrophenyl-5′-AMP as a substrate; format: biochemical
Method: AMP-pNP can be used as substrate of ENPP-1. Its hydrolysis products were nucleotide-5′-monophosphate and p-nitrophcnol, which is also a chromogenic product. The amount of p-nitrophenol product formed is measured using its absorbance at 405 nm, which is directly proportional to enzyme activity.
Load into a well with […] of human soluble ENPP1 in 50 μL and incubate at room temperature with 25 μL inhibitor solution (4× Final Concentration) for 30 mins prior adding 25 μL 3 mM AMP solution (2× Final Concentration) into the well, Incubate at RT for 1 hour. The amounts of released p-nitrophenolate were measured by reading OD value at 405 nm.
as §1
(§2) The IC50 values for percent inhibition versus compound concentration are determined by fitting the inhibition curves using a four-parameter variable slope model in GraphPad Prism® 8.

ENPP-1, MDA-MB-231 cells = molecular target: T2, ENPP-1, MDA-MB-231 cells (Homo sapiens, UniProt P22413); assay: cell-based; conditions: for inhibition at 20 µM: MDA-MB-231, read-out: % Inhibition (at 20 μM)
T2 sequence (P22413 1-925): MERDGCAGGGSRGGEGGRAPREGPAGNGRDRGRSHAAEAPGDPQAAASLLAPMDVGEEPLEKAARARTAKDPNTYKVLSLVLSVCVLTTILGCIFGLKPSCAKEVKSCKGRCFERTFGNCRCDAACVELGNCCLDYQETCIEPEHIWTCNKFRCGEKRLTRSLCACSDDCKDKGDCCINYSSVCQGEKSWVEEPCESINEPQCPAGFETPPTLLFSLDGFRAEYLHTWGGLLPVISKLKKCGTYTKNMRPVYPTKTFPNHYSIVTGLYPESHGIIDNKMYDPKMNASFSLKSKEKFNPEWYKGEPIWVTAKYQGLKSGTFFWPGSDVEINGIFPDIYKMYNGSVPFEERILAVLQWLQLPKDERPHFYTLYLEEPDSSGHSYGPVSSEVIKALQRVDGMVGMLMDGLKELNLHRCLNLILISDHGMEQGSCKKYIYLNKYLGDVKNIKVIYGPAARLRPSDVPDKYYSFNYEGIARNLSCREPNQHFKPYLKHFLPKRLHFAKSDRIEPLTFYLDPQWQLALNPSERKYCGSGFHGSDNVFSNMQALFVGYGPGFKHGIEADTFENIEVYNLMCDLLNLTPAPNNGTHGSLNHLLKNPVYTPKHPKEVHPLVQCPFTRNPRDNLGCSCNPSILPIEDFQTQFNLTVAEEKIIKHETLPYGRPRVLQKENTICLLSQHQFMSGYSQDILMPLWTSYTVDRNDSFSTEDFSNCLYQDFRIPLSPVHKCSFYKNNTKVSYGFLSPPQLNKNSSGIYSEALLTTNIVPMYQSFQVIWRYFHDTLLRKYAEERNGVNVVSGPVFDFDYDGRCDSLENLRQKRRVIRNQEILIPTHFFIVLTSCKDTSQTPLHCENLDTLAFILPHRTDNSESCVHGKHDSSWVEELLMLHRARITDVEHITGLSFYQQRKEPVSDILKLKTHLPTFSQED
Method: ENPP-1 were mainly expressed on the surface of cell membrane where it hydrolytes 2′3′-cGAMP to generate 5′-GMP and 5′-AMP. ENPP-1 also has the ability to hydrolyzes artificial phosphoric acid ester TMP-pNP to nucleotide-5′-monophosphate and p-nitrophcnol there, which is a chromogenic product.
8 point of different concentrations of each inhibitor were prepared with the final assay concentrations starting at 20 μM. 3× series dilution by DMEM medium without FBS was applied. Prior to adding inhibitors, 75000 cells per well were incubated at 37° C., 5% CO2 in DMEM for 24 hours. After removing the supernatant medium, 50 μL inhibitor solution was added into each well with cultured cells and incubate at 37° C., 5% CO2 for 60 minutes.
as §2

`COc1cc2ncc3c(c2cc1OC)n(Cc1ccc(S(N)(=O)=O)cc1)c(=O)n3C` [Compound 2, 4-((7,8-dimethoxy-3-methyl-2-oxo-2,3-dihydro-1H-imidazo[4,5-c]quinolin-1-yl)methyl)benzenesulfonamide] was tested, and the IC50 (human soluble ENPP1 [1]) was 10 nM.
In the case of `COc1ccc2c(c1)ncc1[nH]c(=O)n([C@H](C)c3ccc(S(N)(=O)=O)cc3)c12` [Compound 8, (R)-4-(1-(7-methoxy-2-oxo-2,3-dihydro-1H-imidazo[4,5-c]quinolin-1-yl)ethyl)benzenesulfonamide], the IC50 (human soluble ENPP1 [1]) is reported as 0.3 nM.
For `COc1cc2ncc3ncn([C@@H](C)c4ccc(S(N)(=O)=O)cc4)c3c2cc1OC` [Compound 11b, (S)-4-(1-(7,8-dimethoxy-1H-imidazo[4,5-c]quinolin-1-yl)ethyl)benzenesulfonamide], the IC50 (human soluble ENPP1 [1]) was 196 nM.
`COc1cc2ncc3nnn(Cc4ccc(S(N)(=O)=O)cc4)c3c2cc1OC` [Compound 13, 4-((7,8-dimethoxy-1H-[1,2,3]triazolo[4,5-c]quinolin-1-yl)methyl)benzenesulfonamide] was tested, and the IC50 (human soluble ENPP1 [1]) was 4.3 nM and the IC50 (human soluble ENPP1 [2]) was 33 nM.
Work on `COc1cc2ncc3ncn(CC4CCN(S(N)(=O)=O)CC4)c3c2cc1OC` [Compound 32, 4-((7,8-dimethoxy-1H-imidazo[4,5-c]quinolin-1-yl)methyl)piperidine-1-sulfonamide] yielded an IC50 (human soluble ENPP1 [1]) of 7.7 nM.
`COc1cc2ncc3ncn(Cc4cccc(S(N)(=O)=O)c4)c3c2cc1OC` [Compound 37, 3-((7,8-dimethoxy-1H-imidazo[4,5-c]quinolin-1-yl)methyl)benzenesulfonamide] gave an IC50 (human soluble ENPP1 [1]) of 165 nM.
Compound `COc1cc2ncc3nnc(Cc4ccc(S(N)(=O)=O)cc4)n3c2cc1OC` [Compound 44, 4-((7,8-dimethoxy-2λ^2,10λ^4-[1,2,4]triazolo[4,3-a]quinoxalin-1-yl)methyl)benzenesulfonamide] has an IC50 (human soluble ENPP1 [1]) of 65 nM.
`COc1cc2ncc3ncn(Cc4ccc(S(N)(=O)=O)cc4)c3c2cn1` [Compound 50, 4-((7-methoxy-1H-imidazo[4,5-c][1,6]naphthyridin-1-yl)methyl)benzenesulfonamide] gave an IC50 (human soluble ENPP1 [1]) of 28 nM.
In the case of `COc1cc2ncc3nnc(-c4ccc(CNS(N)(=O)=O)cc4)n3c2cc1OC` [Compound 51, 4-(7,8-dimethoxy-[1,2,4]triazolo[4,3-a]quinoxalin-1-yl)benzyl sulfamide], the IC50 (human soluble ENPP1 [1]) is reported as 884 nM.
Compound `COc1ccc2c(ncc3ncn([C@H](C)c4ccc(S(N)(=O)=O)cc4)c32)n1` [Compound 54, (R)-4-(1-(7-methoxy-1H-imidazo[4,5-c][1,8]naphthyridin-1-yl)ethyl)benzenesulfonamide] has an IC50 (ENPP-1, MDA-MB-231 cells) of 900 nM, an inhibition at 20 µM (ENPP-1, MDA-MB-231 cells) of 82% and an IC50 (human soluble ENPP1 [1]) of 0.53 nM. For the same compound, the IC50 (human soluble ENPP1 [2]) was 1.8 nM.
`COc1ccc2c(ncc3nc(OC)n(Cc4ccc(S(N)(=O)=O)c(F)c4)c32)n1` [Compound 78, 4-((2,7-dimethoxy-1H-imidazo[4,5-c][1,8]naphthyridin-1-yl)methyl)-2-fluorobenzenesulfonamide] showed an IC50 (human soluble ENPP1 [1]) of 1.7 nM and an IC50 (human soluble ENPP1 [2]) of 7.2 nM.
For `COc1nc2nc(C)c3nc(C)n(Cc4ncc(S(N)(=O)=O)cn4)c3c2cc1Cl` [Compound 91b, 2-((6-chloro-7-methoxy-2,4-dimethyl-1H-imidazo[4,5-c][1,8]naphthyridin-1-yl)methyl)pyrimidine-5-sulfonamide], the IC50 (human soluble ENPP1 [1]) was 62 nM and the IC50 (human soluble ENPP1 [2]) was 199 nM.
`COc1ccc2c(ncc3[nH]c(=O)n(Cc4cc(F)c(S(N)(=O)=O)c(F)c4)c32)n1` [Compound 100, 2,6-difluoro-4-((7-methoxy-2-oxo-2,3-dihydro-1H-imidazo[4,5-c][1,8]naphthyridin-1-yl)methyl)benzenesulfonamide] was tested, and the IC50 (human soluble ENPP1 [1]) was 8.8 nM.
With `CCCC(=O)NS(=O)(=O)c1cc(F)c(Cn2c(=O)[nH]c3cnc4nc(OC)ccc4c32)c(F)c1` [Compound 106, sodium butyryl((3,5-difluoro-4-((7-methoxy-2-oxo-2,3-dihydro-1H-imidazo[4,5-c][1,8]naphthyridin-1-yl)methyl)phenyl)sulfonyl)amide] the IC50 (ENPP-1, MDA-MB-231 cells) was over 6700 nM and the inhibition at 20 µM (ENPP-1, MDA-MB-231 cells) was 57%.
In the case of `CNS(=O)(=O)c1cc(F)c(Cn2c(=O)[nH]c3cnc4nc(OC)ccc4c32)c(F)c1` [Compound 107, 3,5-difluoro-4-((7-methoxy-2-oxo-2,3-dihydro-1H-imidazo[4,5-c][1,8]naphthyridin-1-yl)methyl)-N-methylbenzenesulfonamide], the IC50 (human soluble ENPP1 [1]) is reported as 43 nM and the IC50 (human soluble ENPP1 [2]) is reported as 79 nM.
In the case of `COc1ccc2c(ncc3[nH]c(=O)n(Cc4c(F)cc(C(N)=O)cc4F)c32)n1` [Compound 109, 3,5-difluoro-4-((7-methoxy-2-oxo-2,3-dihydro-1H-imidazo[4,5-c][1,8]naphthyridin-1-yl)methyl)benzamide], the IC50 (ENPP-1, MDA-MB-231 cells) is reported as over 20000 nM and the inhibition at 20 µM (ENPP-1, MDA-MB-231 cells) is reported as 11%.
In the case of `COc1ccc2c(ncc3[nH]c(=O)n(Cc4ccc(CS(N)(=O)=O)cc4)c32)n1` [Compound 128, (4-((7-Methoxy-2-oxo-2,3-dihydro-1H-imidazo[4,5-c][1,8]naphthyridin-1-yl)methyl)phenyl)-methanesulfonamide], the inhibition at 20 µM (ENPP-1, MDA-MB-231 cells) is reported as 82%.
Compound `COc1ccc2c(ncc3ncn(Cc4c(F)cc(S(N)(=O)=O)cc4F)c32)n1` [Compound 129, 3,5-difluoro-4-((7-methoxy-1H-imidazo[4,5-c][1,8]naphthyridin-1-yl)methyl)benzenesulfonamide] has an IC50 (human soluble ENPP1 [1]) of 0.1 nM and an IC50 (human soluble ENPP1 [2]) of 0.19 nM.
`COc1ccc2c(ncc3nc(C)n(Cc4c(F)cc(S(N)(=O)=O)cc4F)c32)n1` [Compound 130, 3,5-difluoro-4-((7-methoxy-2-methyl-1H-imidazo[4,5-c][1,8]naphthyridin-1-yl)methyl)benzenesulfonamide] gave an IC50 (human soluble ENPP1 [1]; substrate TMP-pNP, 20 ng human soluble ENPP1, Tris buffer pH 9.5, read-out: TMP-pNP (IC50)) of 0.16 nM and an IC50 (human soluble ENPP1 [2]) of 0.16 nM.
`COc1ccc2c(ncc3[nH]c(=O)n(Cc4c(F)cc(NS(N)(=O)=O)cc4F)c32)n1` [Compound 138] was tested, and the IC50 (human soluble ENPP1 [1]) was 38 nM and the IC50 (human soluble ENPP1 [2]) was 141 nM.
